Test results from US4977141A, “Peptidyl α-aminoacyl aminodiol carbamates as anti-hypertensive agents” (G. D. Searle & Co., priority 1987, dated 1990).
Square brackets hold non-standard residues; d marks the D form. Peptide text beside a SMILES is read from it. * marks the point of attachment. Sta = CC(C)C[C@H](N)[C@@H](O)CC(=O)O; Isovaleryl = CC(C)CC(=O)*

Tests used:
hog renin = biological target: T1, hog renin (Sus scrofa, UniProt A0A287APG1); experiment: hog renin inhibition assay; format: biochemical; details: pH 7.4, 37° C., one hour, synthetic tetradecapeptide substrate
T1 construct: purchased Sigma Chemical Co
T1 sequence (A0A287APG1 24-407): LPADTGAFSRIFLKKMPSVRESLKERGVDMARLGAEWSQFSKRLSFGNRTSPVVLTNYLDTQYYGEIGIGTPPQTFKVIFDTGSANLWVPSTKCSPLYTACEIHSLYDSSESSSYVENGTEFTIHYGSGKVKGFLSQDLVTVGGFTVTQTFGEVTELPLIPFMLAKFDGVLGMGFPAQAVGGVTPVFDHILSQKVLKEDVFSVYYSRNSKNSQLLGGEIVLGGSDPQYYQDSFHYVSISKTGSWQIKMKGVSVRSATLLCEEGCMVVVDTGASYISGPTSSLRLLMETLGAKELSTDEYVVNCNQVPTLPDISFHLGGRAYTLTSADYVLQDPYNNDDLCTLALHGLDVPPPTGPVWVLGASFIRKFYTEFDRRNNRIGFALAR
Procedure: The hog renin inhibition assay was conducted in a manner similar to the human resin assay, with the following modification: Hog renin was purchased from Sigma Chemical Co. and the synthetic tetradecapeptide substrate was obtained from peninsula Labs Inc. In a final volume of 0.25 mL 100 mM Tris-acetate buffer at pH 7.4, 0.125 m units hog renin, 20 micromolar tetradecapeptide, 6 mM disodium EDTA, 3.2 mM phenylmethyl sulfonyl fluoride, 3 mM 8-hydroxyquinoline, 1.2 mg/mL BSA and 0.024 mg/mL neomycin sulfate were incubated for one hour at 37° C. in the presence or absence of renin inhibitors. The amount of angiotensin I produced was determined as for the human renin inhibition assay.

human renin = biological target: T2, human renin (Homo sapiens, UniProt P00797); experiment: human renin inhibition in vitro assay; format: biochemical; details: pH 7.4, 37° C., two hours, human plasma substrate
T2 construct: purchased National Institute for Biological Standards, London
T2 sequence (P00797 67-406): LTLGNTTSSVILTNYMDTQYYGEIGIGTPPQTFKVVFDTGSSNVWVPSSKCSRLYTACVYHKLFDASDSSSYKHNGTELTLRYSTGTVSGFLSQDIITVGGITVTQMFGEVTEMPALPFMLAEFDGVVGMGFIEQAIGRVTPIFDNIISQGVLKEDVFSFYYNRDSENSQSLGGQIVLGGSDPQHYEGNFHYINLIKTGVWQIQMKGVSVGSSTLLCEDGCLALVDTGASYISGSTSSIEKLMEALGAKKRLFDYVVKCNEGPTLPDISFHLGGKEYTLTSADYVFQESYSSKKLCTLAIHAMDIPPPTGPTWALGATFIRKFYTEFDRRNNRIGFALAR
Procedure: Compounds of Formula I were evaluated as inhibitors of human renin in an in vitro assay, as follows: This human renin inhibition test has been previously described in detail [Papaioannou, et. al., Clinical and Experimental Hypertension, A7(9), 1243-1257 (1985)]. Human renin was obtained from the National Institute for Biological Standards, London. In a total volume of 0.25 mL 100 mM Tris-acetate buffer at PH 7.4, 25×10^-6 Goldblatt units of renin, 0.05 mL of plasma from human volunteers taking oral contraceptives, 6.0 mM sodium EDTA, 2.4 mM phenylmethyl sulfonyl fluoride, 1.5 mM 8-hydroxyquinoline, 0.4 mg/mL BSA, and 0.024 mg/mL neomycin sulfate were incubated for two hours at 37° C. in the presence or absence of renin inhibitors. The produced angiotensin I was determined by radioimmunoassay (New England Nuclear kit). Dipeptide glycols to be assayed were solubilized in either ethyl alcohol or DMSO and diluted with 100 mM Tris-acetate buffer at pH 7.4 to the appropriate concentration. The final concentration of organic solvent in the reaction mixture was less than 1%. Control incubations at 37° C. were used to correct for effects of organic solvent on renin activity.

Plasma Renin Activity = Plasma Renin Activity of Sodium-Depleted Marmoset, oral activity; format: in vivo, Common marmosets (Callithrix jacchus); details: 20 mg/kg IG
Procedure: The oral activity of compounds of Formula I was determined in vivo in Marmoset monkeys in accordance with the following procedure: Common marmosets (Callithrix jacchus, Charles River) were placed on a modified high protein low sodium diet (Purina, St. Louis, Mo.) for 1 to 2 weeks. On the day of the test an animal was anesthetized with isoflurane and cannulated in the femoral artery and vein for blood pressure monitoring, intravenous saralasin infusion and blood sampling. After allowing the animal to recover from surgery for 2 hr, saralasin was infused at 1 microgram/min for 15 minutes to confirm that the animal's blood pressure was dependent on angiotensin II levels. The marmoset was allowed to stabilize for 30 min after the saralasin infusion. The test compound was administered orally and blood pressure was monitored for 2 hr. Blood samples were taken in K-EDTA for plasma renin activity before, 30 min, and 1 hr after compound administration.

[1] = test system: plasma renin activity (PRA); experiment: plasma renin activity (PRA) reduction in Rhesus monkeys, intravenous; details: Macaca mulatta, 0.25 h, furosemide pre-treated Rhesus monkeys, dose reducing PRA to 50% of pretreatment control, read-out: Rhesus (in vivo) PRA Reduction ED50
Procedure: The effect of inhibitor on plasma renin activity (PRA) in Rhesus monkeys was determined as follows: Rhesus monkeys were pre-treated with furosemide (0.2 mg/kg; i.m.) followed by another equal does 6 hours later. Then, 24 hours after the first treatment, the animals were chaired and blood samples collected for pre-treatment controls; immediately thereafter dosing with drug was started. The compounds were administered intravenously every 30 min and blood samples were collected 15 min after each administration. PRA was determined by the method of Sealey and Laragh Cardiovascular Med. 2, 1079-1092 (1977), and the concentration of angiotensin I produced was determined by radioimmunoassay.

[2] = test system: aspartyl proteases such as pepsin, cathepsin D and renin; details: cited from earlier work
blood pressure = details: after the injection of hog renin into nephrectomized rats; cited from earlier work

CC(C)C[C@H](NC(=O)[C@H](Cc1ccccc1)OC(=O)N1CCOCC1)C(=O)N[C@@H](CC1CCCCC1)[C@@H](O)[C@H](C)O [Example 9, O-(N-morpholinocarbonyl)-3-L-phenyllactyl-L-leucinamide of (2S,3R,4S)-2-amino-1-cyclohexyl-3,4-dihydroxypentane]
IC50 (hog renin): 6600 nM
IC50 (human renin): 100 nM

CC(C)C[C@H](NC(=O)[C@H](Cc1ccccc1)OC(=O)N1CCOCC1)C(=O)N[C@@H](CC1CCCCC1)[C@@H](O)[C@@H](O)CC(C)C [Example 6, O-(N-morpholinocarbonyl)-3-L-phenyllactyl-L-leucinamide of (2S,3R,4S)-2-amino-1-cyclohexyl-3,4-dihydroxy-6-methylheptane]
Plasma Renin Activity (Plasma Renin Activity; 30 min, Animal No. 206): 2.2 ng AI/ml/hr
Plasma Renin Activity (Plasma Renin Activity; 30 min, Animal No. 207): 0.2 ng AI/ml/hr
Plasma Renin Activity (Plasma Renin Activity; 30 min, Animal No. 208): 1.0 ng AI/ml/hr
Plasma Renin Activity (Plasma Renin Activity; 60 min, Animal No. 206): 0.6 ng AI/ml/hr
Plasma Renin Activity (Plasma Renin Activity; 60 min, Animal No. 207): 0.9 ng AI/ml/hr
Plasma Renin Activity (Plasma Renin Activity; 60 min, Animal No. 208): 2.0 ng AI/ml/hr
Plasma Renin Activity (Plasma Renin Activity; Pretreatment, Animal No. 206): 16.3 ng AI/ml/hr
Plasma Renin Activity (Plasma Renin Activity; Pretreatment, Animal No. 207): 16.4 ng AI/ml/hr
Plasma Renin Activity (Plasma Renin Activity; Pretreatment, Animal No. 208): 15.7 ng AI/ml/hr
ED50 [1]: 0.012 mg/kg
IC50 (hog renin): 160 nM
IC50 (human renin): 70 nM

CC(C)CC(=O)N[C@H](C(=O)N[C@H](C(=O)N[C@@H](CC(C)C)[C@@H](O)CC(=O)N[C@@H](C)C(=O)N[C@@H](CC(C)C)[C@@H](O)CC(=O)O)C(C)C)C(C)C [pepstatin] (Isovaleryl-VV[Sta]A[Sta]-OH)
inhibition of aspartyl proteases [2]: inhibitor of aspartyl proteases
blood pressure reduction in vivo (blood pressure): reduce blood pressure in vivo

CC(C)C[C@H](NC(=O)[C@H](Cc1ccccc1)OC(=O)N1CCOCC1)C(=O)N[C@@H](CC1CCCCC1)[C@@H](O)CO [Example 11, O-(N-morpholinocarbonyl)-3-L-phenyllactyl-L-leucinamide of (2S, 3R)-2-amino-1-cyclohexyl-3,4-dihydroxybutane]
Plasma Renin Activity (Plasma Renin Activity; 30 min, Animal No. 205): 0.6 ng AI/ml/hr
Plasma Renin Activity (Plasma Renin Activity; 30 min, Animal No. 209): 1.1 ng AI/ml/hr
Plasma Renin Activity (Plasma Renin Activity; 30 min, Animal No. 221): 48.5 ng AI/ml/hr
Plasma Renin Activity (Plasma Renin Activity; 60 min, Animal No. 205): 4.5 ng AI/ml/hr
Plasma Renin Activity (Plasma Renin Activity; 60 min, Animal No. 209): 0.0 ng AI/ml/hr
Plasma Renin Activity (Plasma Renin Activity; 60 min, Animal No. 221): 24.9 ng AI/ml/hr
Plasma Renin Activity (Plasma Renin Activity; Pretreatment, Animal No. 205): 17.5 ng AI/ml/hr
Plasma Renin Activity (Plasma Renin Activity; Pretreatment, Animal No. 209): 39.3 ng AI/ml/hr
Plasma Renin Activity (Plasma Renin Activity; Pretreatment, Animal No. 221): 37.6 ng AI/ml/hr
ED50 [1]: 1.6 mg/kg
IC50 (hog renin): 7200 nM
IC50 (human renin): 490 nM
